Test results published in patent US20200038416A1, “METHODS OF TREATING CARDIAC CONDUCTION DEFECTS USING AMINOSTEROL COMPOSITIONS” (Enterin, Inc., priority 2018, published 2020).
Where “and” joins values, the source holds several entries; their conditions need not be identical. Identical values can stand only once.

Assays:
[1] = system: patients with PD and constipation; test: Phase 2 trial safety and adverse event profile (Stages 1 and 2); assay type: in vivo, human
Protocol: Tolerability limits included diarrhea or vomiting.
In Stage 2, 34 patients were evaluated.

[2] = parameters: species or system rats; conditions: rat, in vivo, po
[3] = system: patients with PD; test: CNS symptoms in Stage 2 (UPDRS, MMSE, PDHQ, BDI-II, hallucinations); assay type: in vivo, human; conditions: for patients whose hallucinations or delusions improved or disappeared during treatment: 6 patients with hallucinations (5) or delusions (1) at baseline
Description: Exploratory end-points, in addition to constipation, included for example, (i) depression assessed using the Beck Depression Inventory (BDI-II) (Steer et al. 2000) and Unified Parkinson's Disease Rating Scale (UPDRS); (ii) cognition assessed using the Mini Mental State Examination (MMSE), Unified Parkinson's Disease Rating Scale (UPDRS), and Trail Making Test (TMT); (iii) sleep and REM-behavior disorder (RBD) using a daily sleep diary, I-Button Temperature Assessment, a REM sleep behavior disorder (RBD) questionnaire (RBDQ) (Stiasny-Kolster et al. 2007), and the UPDRS; (iv) hallucinations assessed using the PD hallucinations questionnaire (PDHQ) (Papapetropoulos et al. 2008), the UPDRS, and direct questioning; (v) fatigue using the Parkinson's Disease Fatigue Scale (PFS-16) and the UPDRS; (vi) motor functions using the UPDRS; and (vii) non-motor functions using the UPDRS.
Assessments were made at baseline and at the end of the fixed dose and washout periods. Circadian system status was evaluated by continuously monitoring wrist skin temperature (Thermochron iButton DS1921H; Maxim, Dallas) following published procedures (Sarabia et al. 2008).
An exploratory analysis was done with respect to the sleep data, the body temperature data, mood, fatigue, hallucinations, cognition and other motor and non-motor symptoms of PD. Continuous measurements within a subject were compared with a paired t-test and continuous measurements between subject groups were compared with a two-group t-test. Categorical data were compared with a chi-squared test or a Fisher's exact test if the expected cell counts are too small for a chi-squared test.
CNS symptoms were evaluated at baseline and at the end of the fixed dose period and the wash-out period (Table 12). Total UPDRS score was 64.4 at baseline, 60.6 at the end of the fixed dose period and 55.7 at the end of the wash-out period (p=0.002); similarly, the motor component of the UPDRS improved from 35.3 at baseline to 33.3 at the end of fixed dose to 30.2 at the end of wash-out (p=0.006). MMSE improved from 28.4 at baseline to 28.7 during treatment and to 29.3 during wash-out (p=0.0006). […] PDHQ improved from 1.3 at baseline to 1.8 during treatment and 0.9 during wash-out (p=0.03). Hallucinations were reported by 5 patients at baseline and delusions in 1 patient. […] The frequency of arm or leg thrashing reported in the sleep diary diminished progressively from 2.2 episodes/week at baseline to 0 at maximal dose. […] Unlike stool-related indices, the improvement in many CNS symptoms persisted during wash-out.

[4] = Stage 1, 10 dosed, unrelated to ENT-01

For `CC(C)[C@@H](CC[C@@H](C)[C@H]1CC[C@H]2[C@@H]3[C@H](O)C[C@H]4C[C@@H](NCCCNCCCCN)CC[C@]4(C)[C@H]3CC[C@]12C)OS(=O)(=O)O` (single isomer, unassigned) [squalamine (ENT-01), squalamine], the “share of AEs confined to the GI tract” value ([1]; Stage 1) was 88%, the patients with diarrhea ([1]; Stage 1, 4/10) was 40% and the patients with nausea ([1]; Stage 1, 4/10) was 40%. The “Abdominal pain, Mild: patients with adverse event” value ([1]; Stage 1, 10 dosed) was 2 (20) n, %, the “Abdominal pain, Moderate: patients with adverse event” value ([1]; Stage 1, 10 dosed) was 3 (30) n, % and the “Blood in urine, Moderate: patients with adverse event” value ([1]; Stage 1, 10 dosed) was 0 n, %. For the same compound, the “Diarrhea, Mild: patients with adverse event” value ([1]; Stage 1, 10 dosed) was 1 (10) n, %, the “Diarrhea, Moderate: patients with adverse event” value ([1]; Stage 1, 10 dosed) was 3 (30) n, % and the “Diarrhea, Severe: patients with adverse event” value ([1]; Stage 1, 10 dosed) was 0 n, %. The “Difficulty falling asleep, Mild: patients with adverse event” value ([1]; Stage 1, 10 dosed) was 0 n, %, the “Difficulty falling asleep, Moderate: patients with adverse event” value ([1]; Stage 1, 10 dosed) was 0 n, % and the “Dizziness, Mild: patients with adverse event” value ([1]; Stage 1, 10 dosed) was 0 n, %. For the same compound, the “Dizziness, Moderate: patients with adverse event” value ([1]; Stage 1, 10 dosed) was 0 n, %, the “Eye infection, Mild: patients with adverse event” value ([1]; Stage 1, 10 dosed) was 0 n, % and the “Eye infection, Moderate: patients with adverse event” value ([1]; Stage 1, 10 dosed) was 0 n, %. For the same compound, the “Flatulence, Mild: patients with adverse event” value ([1]; Stage 1, 10 dosed) was 2 (20) n, %, the “Flatulence, Moderate: patients with adverse event” value ([1]; Stage 1, 10 dosed) was 0 n, % and the “Headache, Mild: patients with adverse event” value ([1]; Stage 1, 10 dosed) was 1 (10) n, %. The “Headache, Moderate: patients with adverse event” value ([1]; Stage 1, 10 dosed) was 0 n, %, the “Increased urinary frequency, Mild: patients with adverse event” value ([1]; Stage 1, 10 dosed) was 0 n, % and the “Increased urinary frequency, Moderate: patients with adverse event” value ([1]; Stage 1, 10 dosed) was 0 n, %. The “Loss of appetite, Moderate: patients with adverse event” value ([1]; Stage 1, 10 dosed) was 0 n, %, the “Lower GI bleed, Severe: patients with adverse event” value ([1]; Stage 1, 10 dosed) was 0 n, % and the “Nausea, Mild: patients with adverse event” value ([1]; Stage 1, 10 dosed) was 4 (40) n, %. For the same compound, the “Nausea, Moderate: patients with adverse event” value ([1]; Stage 1, 10 dosed) was 0 n, %, the “Skin lesions-rash, Mild: patients with adverse event” value ([1]; Stage 1, 10 dosed) was 0 n, % and the “Skin lesions-rash, Moderate: patients with adverse event” value ([1]; Stage 1, 10 dosed) was 0 n, %. For the same compound, the “Urinary retention, Mild: patients with adverse event” value ([1]; Stage 1, 10 dosed) was 0 n, %, the “Urinary retention, Moderate: patients with adverse event” value ([1]; Stage 1, 10 dosed) was 0 n, % and the “Urinary tract infection, Mild: patients with adverse event” value ([1]; Stage 1, 10 dosed) was 0 n, %. The “Urinary tract infection, Moderate: patients with adverse event” value ([1]; Stage 1, 10 dosed) was 0 n, %, the “Vomiting, Mild: patients with adverse event” value ([1]; Stage 1, 10 dosed) was 1 (10) n, % and the “Vomiting, Moderate: patients with adverse event” value ([1]; Stage 1, 10 dosed) was 0 n, %. The “Worsening acid reflux, Mild: patients with adverse event” value ([1]; Stage 1, 10 dosed) was 0 n, %, the “Worsening acid reflux, Moderate: patients with adverse event” value ([1]; Stage 1, 10 dosed) was 0 n, % and the “Worsening hemorrhoid, Mild: patients with adverse event” value ([1]; Stage 1, 10 dosed) was 0 n, %. The “Worsening hemorrhoid, Moderate: patients with adverse event” value ([1]; Stage 1, 10 dosed) was 0 n, %, the “Blood in urine, Mild: patients with adverse event” value [1, 4] was 1 (10) n, % and the “Loss of appetite, Mild: patients with adverse event” value [1, 4] was 1 (10) n, %. For the same compound, the “share of AEs confined to the GI tract” value ([1]; Stage 2) was 63%, the “Abdominal pain, Mild: patients with adverse event” value ([1]; Stage 2, 34 dosed) was 4 n and the “Abdominal pain, Moderate: patients with adverse event” value ([1]; Stage 2, 34 dosed) was 2 n. For the same compound, the “Blood in urine, Mild: patients with adverse event” value ([1]; Stage 2, 34 dosed) was 0 n, the “Blood in urine, Moderate: patients with adverse event” value ([1]; Stage 2, 34 dosed) was 0 n and the “Diarrhea, Mild: patients with adverse event” value ([1]; Stage 2, 34 dosed) was 12 n. The “Diarrhea, Moderate: patients with adverse event” value ([1]; Stage 2, 34 dosed) was 2 n, the “Diarrhea, Severe: patients with adverse event” value ([1]; Stage 2, 34 dosed) was 1 n and the “Difficulty falling asleep, Mild: patients with adverse event” value ([1]; Stage 2, 34 dosed) was 1 n. For the same compound, the “Difficulty falling asleep, Moderate: patients with adverse event” value ([1]; Stage 2, 34 dosed) was 0 n, the “Dizziness, Mild: patients with adverse event” value ([1]; Stage 2, 34 dosed) was 7 n and the “Dizziness, Moderate: patients with adverse event” value ([1]; Stage 2, 34 dosed) was 1 n. For the same compound, the “Eye infection, Mild: patients with adverse event” value ([1]; Stage 2, 34 dosed) was 1 n, the “Eye infection, Moderate: patients with adverse event” value ([1]; Stage 2, 34 dosed) was 0 n and the “Flatulence, Mild: patients with adverse event” value ([1]; Stage 2, 34 dosed) was 1 n. The “Flatulence, Moderate: patients with adverse event” value ([1]; Stage 2, 34 dosed) was 0 n, the “Headache, Mild: patients with adverse event” value ([1]; Stage 2, 34 dosed) was 3 n and the “Headache, Moderate: patients with adverse event” value ([1]; Stage 2, 34 dosed) was 0 n. For the same compound, the “Increased urinary frequency, Mild: patients with adverse event” value ([1]; Stage 2, 34 dosed) was 2 n, the “Increased urinary frequency, Moderate: patients with adverse event” value ([1]; Stage 2, 34 dosed) was 0 n and the “Loss of appetite, Mild: patients with adverse event” value ([1]; Stage 2, 34 dosed) was 0 n. For the same compound, the “Loss of appetite, Moderate: patients with adverse event” value ([1]; Stage 2, 34 dosed) was 0 n, the “Nausea, Mild: patients with adverse event” value ([1]; Stage 2, 34 dosed) was 18 n and the “Nausea, Moderate: patients with adverse event” value ([1]; Stage 2, 34 dosed) was 1 n. For the same compound, the “Skin lesions-rash, Mild: patients with adverse event” value ([1]; Stage 2, 34 dosed) was 3 n, the “Skin lesions-rash, Moderate: patients with adverse event” value ([1]; Stage 2, 34 dosed) was 0 n and the “Urinary retention, Mild: patients with adverse event” value ([1]; Stage 2, 34 dosed) was 1 n. The “Urinary retention, Moderate: patients with adverse event” value ([1]; Stage 2, 34 dosed) was 0 n, the “Urinary tract infection, Mild: patients with adverse event” value ([1]; Stage 2, 34 dosed) was 1 n and the “Urinary tract infection, Moderate: patients with adverse event” value ([1]; Stage 2, 34 dosed) was 2 n. For the same compound, the “Vomiting, Mild: patients with adverse event” value ([1]; Stage 2, 34 dosed) was 2 n, the “Vomiting, Moderate: patients with adverse event” value ([1]; Stage 2, 34 dosed) was 0 n and the “Worsening acid reflux, Mild: patients with adverse event” value ([1]; Stage 2, 34 dosed) was 4 n. The “Worsening acid reflux, Moderate: patients with adverse event” value ([1]; Stage 2, 34 dosed) was 0 n, the “Worsening hemorrhoid, Mild: patients with adverse event” value ([1]; Stage 2, 34 dosed) was 1 n and the “Worsening hemorrhoid, Moderate: patients with adverse event” value ([1]; Stage 2, 34 dosed) was 0 n. For the same compound, the “Lower GI bleed, Severe: patients with adverse event” value ([1]; Stage 2, colonic diverticulosis, polyp, patient on aspirin, Plavix and naproxen, unrelated to ENT-01) was 1 n, the “absorption from the intestine” value [2] was “low” and the “patients whose hallucinations or delusions improved or disappeared during treatment” value [3] was “five and 5 of 6”. For the same compound, the “patients whose hallucinations or delusions improved or disappeared during treatment” value ([3]; listed as ENT-01) was “five”, the “improvement in Part 1 of the UPDRS” value ([3]; baseline 11.6 to wash-out 9.5) was ~20% and the “time hallucinations/delusions did not return following discontinuation” value ([3]; single patients) was 4 weeks and 2 weeks.
